Molecular target: Human DAAO Enzyme (Homo sapiens (Human), UniProt P14920)
Assay: In vitro DAAO enzyme assay (Amplex Red detection of H2O2 from D-Serine)
Type: biochemical
Details: inhibition of DAAO activity in the presence of 10 mM D-Serine; 60 minutes at 25° C.
Protocol: The functional activity of compounds inhibiting the DAAO enzyme was determined by utilizing the co-product of the catalysis of D-Serine, H2O2 which can be quantitatively measured using the Amplex Red (Invitrogen) detection. Amplex® Red reagent is a colorless substrate that reacts with hydrogen peroxide (H2O2) with a 1:1 stoichiometry in the presence of […] to produce highly fluorescent resorufin (excitationemission maxima=570/585 nm). The changes in fluorescence were monitored by a fluorescence plate reader, Envision (Perkin Elmer) and increases in DAAO activity were readily detected upon addition of D-Serine and suppression of this response observed with the application of test compounds.
The Km of D-Serine was measured for each enzyme batch to maintain consistency; this Km was used in subsequent assays.
On the day of the assay compounds were serially diluted in DMSO before being diluted 1:20 with assay buffer (20 mM Tris ph 7.4). A 5 μl portion of assay buffer was added to the wells of a 384 clear base black walled plate (Corning), 5 μl of diluted compound was then added via automated plate to plate transfer using the Bravo liquid handler (Agilent technologies) followed by 5 μl of human DAAO enzyme and then 5 μl D-Serine 50 mM was added to all but the negative control wells (final concentration of 10 mM). Finally 5 μl Amplex red reagent (Invitrogen) was added to all wells as per manufacturer's protocol. The plate was incubated for 60 minutes in the dark at 25° C. and the fluorescence in each well was measured in the Envision plate reader.
The IC50 values for compounds were determined from ten point half log scale dose-response studies and represent the concentration of compound required to […] 50% inhibition of DAAO activity in the presence of 10 mM D-Serine. Concentration response curves were generated using the average of duplicate wells for each data point and analyzed using nonlinear regression and four parameter curve fit.

Chain of Human DAAO Enzyme (P14920 whole entry): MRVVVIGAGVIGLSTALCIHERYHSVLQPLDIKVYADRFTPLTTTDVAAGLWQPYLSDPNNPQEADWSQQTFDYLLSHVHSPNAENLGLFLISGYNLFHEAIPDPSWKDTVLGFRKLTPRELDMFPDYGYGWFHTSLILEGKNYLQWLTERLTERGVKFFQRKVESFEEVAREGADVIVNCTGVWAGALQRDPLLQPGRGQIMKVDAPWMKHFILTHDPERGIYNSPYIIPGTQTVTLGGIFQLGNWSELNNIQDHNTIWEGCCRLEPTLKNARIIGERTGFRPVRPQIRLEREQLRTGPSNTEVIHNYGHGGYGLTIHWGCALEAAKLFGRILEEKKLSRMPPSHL

Row | IC50 | Compound
1 | 120 nM | O=c1[nH]c(SCc2cccc(Cl)c2)ncc1O [Example 1, 2-(3-Chlorobenzylthio)-5-hydroxypyrimidin-4(3H)-one]
2 | 230 nM | O=c1[nH]c(SCc2ccccc2)ncc1O [Example 2, 2-(Benzylsulfanyl)-5-hydroxypyrimidin-4(3H)-one]
3 | 220 nM | O=c1[nH]c(SCc2ccc(Cl)cc2)ncc1O [Example 4, 2-[(4-Chlorobenzyl)sulfanyl]-5-hydroxypyrimidin-4(3H)-one]
4 | 120 nM | O=c1[nH]c(SCc2ccc3ccccc3c2)ncc1O [Example 5, 5-Hydroxy-2-[(naphthalen-2-ylmethyl)sulfanyl]pyrimidin-4(3H)-one]
5 | 170 nM | O=c1[nH]c(SCc2cccc(F)c2)ncc1O [Example 6, 2-[(3-Fluorobenzyl)sulfanyl]-5-hydroxypyrimidin-4(3H)-one]
6 | 160 nM | COc1cccc(CSc2ncc(O)c(=O)[nH]2)c1 [Example 9, 5-Hydroxy-2-[(3-methoxybenzyl)sulfanyl]pyrimidin-4(3H)-one]
7 | 150 nM | O=c1[nH]c(SCc2cccc(C(F)(F)F)c2)ncc1O [Example 10, 5-Hydroxy-2-{[3-(trifluoromethyl)benzyl]sulfanyl}pyrimidin-4(3H)-one]
8 | 150 nM | O=c1[nH]c(SCc2cc(F)cc(Cl)c2)ncc1O [Example 11, 2-[(3-Chloro-5-fluorobenzyl)sulfanyl]-5-hydroxypyrimidin-4(3H)-one]
9 | 500 nM | Cc1nc(-c2cccc(CSc3ncc(O)c(=O)[nH]3)c2)no1 [Example 12, 5-Hydroxy-2-{[3-(5-methyl-1,2,4-oxadiazol-3-yl)benzyl]-sulfanyl}-pyrimidin-4(3H)-one]
10 | 1200 nM | CC(Sc1ncc(O)c(=O)[nH]1)c1ccccc1 (stereo not shown) [Example 14, 5-Hydroxy-2-[(1-phenylethyl)sulfanyl]pyrimidin-4(3H)-one]
11 | 540 nM | O=c1[nH]c(SCc2cccc3c2OCCO3)ncc1O [Example 16, 2-[(2,3-Dihydro-1,4-benzodioxin-5-ylmethyl)sulfanyl]-5-hydroxypyrimidin-4(3H)-one]
12 | 190 nM | O=c1[nH]c(SCc2cccc(OC(F)F)c2)ncc1O [Example 18, 2-(3-(Difluoromethoxy)benzylthio)-5-hydroxypyrimidin-4(3H)-one]
13 | 470 nM | O=c1[nH]c(SCc2cccnc2)ncc1O [Example 20, 5-Hydroxy-2-(pyridin-3-ylmethylthio)pyrimidin-4(3H)-one]
14 | 1600 nM | Cc1cc(CSc2ncc(O)c(=O)[nH]2)n(C)n1 [Example 21, 2-((1,3-Dimethyl-1H-pyrazol-5-yl)methylthio)-5-hydroxypyrimidin-4(3H)-one]
15 | 740 nM | O=c1[nH]c(SCc2ccc3nccn3c2)ncc1O [Example 26, 5-Hydroxy-2-[(imidazo[1,2-a]pyridin-6-ylmethyl)sulfanyl]-pyrimidin-4(3H)-one]
16 | 2800 nM | O=c1[nH]c(CSc2ccccc2)ncc1O [Example 30, 5-Hydroxy-2-[(phenylsulfanyl)methyl]pyrimidin-4(3H)-one]
17 | 3200 nM | O=c1[nH]c(COc2ccccc2)ncc1O [Example 31, 5-Hydroxy-2-(phenoxymethyl)pyrimidin-4(3H)-one]
18 | 1200 nM | O=c1[nH]c(CCc2ccccc2)ncc1O [Example 33, 5-Hydroxy-2-(2-phenylethyl)pyrimidin-4(3H)-one]
19 | 2700 nM | O=c1[nH]c(SCc2ccccc2)nc(C(F)(F)F)c1O [Example 34, 2-(Benzylsulfanyl)-5-hydroxy-6-(trifluoromethyl)pyrimidin-4(3H)-one]
